Measurements: patent US11040981B2, “Pyrrolotriazine compounds and methods of inhibiting TAM kinases” (Syros Pharmaceuticals, Inc., priority 2017, dated 2021)

Tests used:
[1] = molecular target: T1, AXL (Homo sapiens, UniProt P30530); assay: TR-FRET kinase activity assay, AXL; type: biochemical; conditions: ATP at Km, 60 minutes
T1 sequence (P30530 26-894): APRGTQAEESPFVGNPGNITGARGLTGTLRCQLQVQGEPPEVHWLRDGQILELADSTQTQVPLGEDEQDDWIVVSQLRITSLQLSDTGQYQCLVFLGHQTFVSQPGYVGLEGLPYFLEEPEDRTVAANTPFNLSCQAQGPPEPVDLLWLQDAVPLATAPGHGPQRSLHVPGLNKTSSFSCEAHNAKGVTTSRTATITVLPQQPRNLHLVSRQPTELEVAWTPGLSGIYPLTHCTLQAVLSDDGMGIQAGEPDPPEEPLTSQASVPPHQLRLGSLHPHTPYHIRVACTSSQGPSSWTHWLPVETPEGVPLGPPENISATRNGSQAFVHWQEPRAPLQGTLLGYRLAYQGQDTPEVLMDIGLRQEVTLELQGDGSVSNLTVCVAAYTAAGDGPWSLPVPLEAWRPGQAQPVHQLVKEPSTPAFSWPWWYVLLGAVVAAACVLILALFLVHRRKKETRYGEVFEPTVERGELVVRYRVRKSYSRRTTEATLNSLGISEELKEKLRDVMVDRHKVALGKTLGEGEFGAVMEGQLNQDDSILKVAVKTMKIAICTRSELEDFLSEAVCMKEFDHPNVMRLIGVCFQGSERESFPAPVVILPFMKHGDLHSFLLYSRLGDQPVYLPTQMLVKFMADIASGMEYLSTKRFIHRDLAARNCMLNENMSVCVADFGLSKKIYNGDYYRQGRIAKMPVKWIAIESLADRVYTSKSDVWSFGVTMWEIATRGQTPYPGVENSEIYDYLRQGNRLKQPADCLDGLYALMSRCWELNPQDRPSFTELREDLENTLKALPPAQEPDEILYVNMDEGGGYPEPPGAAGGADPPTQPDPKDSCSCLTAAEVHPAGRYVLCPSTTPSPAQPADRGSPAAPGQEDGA
Outline: (§1)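 Each kinase phosphorylated a fluorescent-labelled tyrosine peptide in 50 mM HEPES pH 7.5, 10 mM MgCl2, 1 mM EGTA, 0.01% Brij 35, 1 mM DTT at RT, with ATP at Km for that enzyme. After 60 min, EDTA quench and Eu-anti-phosphotyrosine antibody (30 min, dark); IC50 from TR-FRET decrease.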

[2] = molecular target: T2, TYRO3 (Homo sapiens, UniProt Q06418); assay: TR-FRET kinase activity assay, TYRO3; type: biochemical; conditions: ATP at Km, 60 minutes
T2 sequence (Q06418 41-890): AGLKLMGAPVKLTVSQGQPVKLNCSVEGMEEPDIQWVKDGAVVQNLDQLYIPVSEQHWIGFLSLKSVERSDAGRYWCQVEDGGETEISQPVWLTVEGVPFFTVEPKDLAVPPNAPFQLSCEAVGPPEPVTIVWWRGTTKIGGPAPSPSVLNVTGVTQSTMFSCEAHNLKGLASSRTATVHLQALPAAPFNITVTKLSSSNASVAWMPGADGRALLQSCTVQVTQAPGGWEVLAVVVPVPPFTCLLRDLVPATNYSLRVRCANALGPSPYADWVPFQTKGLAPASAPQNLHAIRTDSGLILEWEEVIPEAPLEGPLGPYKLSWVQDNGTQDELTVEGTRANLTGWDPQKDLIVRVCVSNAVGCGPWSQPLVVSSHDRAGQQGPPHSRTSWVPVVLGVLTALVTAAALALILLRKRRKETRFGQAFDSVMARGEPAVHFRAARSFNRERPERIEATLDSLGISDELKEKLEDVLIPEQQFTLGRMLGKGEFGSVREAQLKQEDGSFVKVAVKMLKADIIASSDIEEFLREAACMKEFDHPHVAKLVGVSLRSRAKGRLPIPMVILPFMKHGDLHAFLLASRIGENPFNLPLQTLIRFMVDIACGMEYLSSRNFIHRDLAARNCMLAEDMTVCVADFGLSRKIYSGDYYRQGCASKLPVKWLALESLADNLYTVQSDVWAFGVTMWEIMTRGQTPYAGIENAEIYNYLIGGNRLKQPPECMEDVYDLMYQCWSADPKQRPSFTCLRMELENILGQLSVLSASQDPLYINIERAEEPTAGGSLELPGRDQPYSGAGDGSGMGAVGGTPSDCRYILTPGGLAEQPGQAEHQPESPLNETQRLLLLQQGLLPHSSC
Outline: as §1

| Structure (SMILES) | IC50 [1] | IC50 [2] |
| --- | --- | --- |
| CCCCC[C@H](C)Nc1ncc2c(-c3ccc(S(=O)(=O)N4CCOCC4)cc3)cc([C@H]3CC[C@@H](O)CC3)n2n1 [Compound 103, (1R,4s)-4-(2-((S)-heptan-2-ylamino)-5-(4-(morpholinosulfonyl)phenyl)pyrrolo[2,1-f][1,2,4]triazin-7-yl)cyclohexanol] | 100 to 1000 nM | 100 to 1000 nM |
| COCC(C)Nc1ncc2c(C3CC4CCC(C3)N4C)cc(C3CCC(O)CC3)n2n1 (stereo not drawn) [Compound 191] | 100 to 1000 nM | ≤ 100 nM |
| COCC(C)Nc1ncc2c(-c3ccc(C4(N5CCN(C)CC5)CC4)cc3)cc(C3CCC(O)CC3)n2n1 (stereo not drawn) [Compound 185] | ≤ 100 nM | ≤ 100 nM |
| COC[C@H](C)Nc1ncc2c(-c3ccc(C(=O)N4CCOCC4)cc3)cc([C@H]3CC[C@H](O)CC3)n2n1 [Compound 187, (4-(7-((trans)-4-hydroxycyclohexyl)-2-(((S)-1-methoxypropan-2-yl)amino)pyrrolo[2,1-f][1,2,4]triazin-5-yl)phenyl)(morpholino)methanone] | ≤ 100 nM | ≤ 100 nM |
| CC(CC1CC1)Nc1ncc2c(-c3ccc(CN4CCOCC4)cc3)cc(C3CCC(O)CC3)n2n1 (stereo not drawn) [Compound 189] | ≤ 100 nM | ≤ 100 nM |
| COCC(C)Nc1ncc2c(N3CCOCC3=O)cc(C3CCC(O)CC3)n2n1 (stereo not drawn) [Compound 192] | 1000 to 10000 nM | 1000 to 10000 nM |
| COC[C@H](C)Nc1ncc2c(-c3cn(C)cn3)cc([C@H]3CC[C@H](O)CC3)n2n1 [Compound 186] | 100 to 1000 nM | ≤ 100 nM |
| Cc1cc(-c2cc(C3CCC(O)CC3)n3nc(NC(C)CC4CC4)ncc23)ccn1 (stereo not drawn) [Compound 190] | ≤ 100 nM | ≤ 100 nM |
| C[C@@H](COC(F)F)Nc1ncc2c(-c3ccc(CN4CCOCC4)cc3)cc([C@H]3CC[C@H](O)CC3)n2n1 [Compound 188] | ≤ 100 nM | ≤ 100 nM |
